According to patent publication US12201707B2, “Nano-emulsion composition for tooth whitening and method for producing the same” (AMOREPACIFIC CORPORATION, priority 2021, dated 2025):

Assay: Tooth whitening test
Procedure: Discoloration was induced by immersing 12 hydroxyapatite (HAP) discs in black tea. Subsequently, the four discolored discs were immersed in vials containing each of the nanoemulsion composition of Example 31, a nanoemulsion composition in which oxygen was not captured as a control (control group 1), distilled water as a control (control group 2), and 3% hydrogen peroxide as a control (control group 3), respectively. The lightness values (L values) of the discs were measured on days 0, 2, 4 and 6 using a spectrophotometer. Before each measurement, the discs were completely dried at 55° C. for 1 hour using an oven.

What does the source list for `OO` [Control 3, hydrogen peroxide]?
lightness value (L value) of disc (Day 0): 72.9; lightness value (L value) of disc (Day 2): 84.3; lightness value (L value) of disc (Day 4): 92.96; lightness value (L value) of disc (Day 6): 97.48
